The supplement of paper PMC10307832

What was measured:
Test in all cases: relative viability (nuclei count vs DMSO), 5 days (fraction); higher = more cells survive
Ruxolitinib + Pemetrexed = compound: N#CC[C@H](C1CCCC1)n1cc(-c2ncnc3[nH]ccc23)cn1 [Ruxolitinib] + Nc1nc2[nH]cc(CCc3ccc(C(=O)N[C@@H](CCC(=O)O)C(=O)O)cc3)c2c(=O)[nH]1 [Pemetrexed] (partner 0.2 µM)
In short: (§1)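 Lung cancer cell lines were pin-tool dosed in 1536-well plates on the day after seeding, with either a lone drug or a fixed anchor-drug dose plus five library-drug doses (not always all listed) in √10 steps. Nuclei were counted on 4× images after 5 days. Relative viability is the ratio of treated-well to vehicle-well nuclei counts, with each value a median of duplicate plates.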

Vismodegib + Palbociclib = compound: CS(=O)(=O)c1ccc(C(=O)Nc2ccc(Cl)c(-c3ccccn3)c2)c(Cl)c1 [Vismodegib] + CC(=O)c1c(C)c2cnc(Nc3ccc(N4CCNCC4)cn3)nc2n(C2CCCC2)c1=O [Palbociclib] (partner 0.5 µM)
In short: as §1

VE-821 + Linsitinib = compound: CS(=O)(=O)c1ccc(-c2cnc(N)c(C(=O)Nc3ccccc3)n2)cc1 [VE-821] + C[C@]1(O)C[C@@H](c2nc(-c3ccc4ccc(-c5ccccc5)nc4c3)c3c(N)nccn32)C1 [Linsitinib] (partner 1 µM)
In short: as §1

VE-821 + Bortezomib = compound: CS(=O)(=O)c1ccc(-c2cnc(N)c(C(=O)Nc3ccccc3)n2)cc1 [VE-821] + CC(C)C[C@H](NC(=O)[C@H](Cc1ccccc1)NC(=O)c1cnccn1)B(O)O [Bortezomib] (partner 0.002 µM)
In short: as §1

Cell Line | relative viability (Ruxolitinib + Pemetrexed; first compound 0.253 µM) | relative viability (Ruxolitinib + Pemetrexed; first compound 0.8 µM) | relative viability (Ruxolitinib + Pemetrexed; first compound 2.53 µM) | relative viability (Ruxolitinib + Pemetrexed; first compound 8 µM) | relative viability (Vismodegib + Palbociclib; first compound 0.08 µM) | relative viability (Vismodegib + Palbociclib; first compound 0.253 µM) | relative viability (Vismodegib + Palbociclib; first compound 0.8 µM) | relative viability (Vismodegib + Palbociclib; first compound 2.53 µM) | relative viability (Vismodegib + Palbociclib; first compound 8 µM) | relative viability (VE-821 + Linsitinib; first compound 0.08 µM) | relative viability (VE-821 + Linsitinib; first compound 0.253 µM) | relative viability (VE-821 + Linsitinib; first compound 0.8 µM) | relative viability (VE-821 + Linsitinib; first compound 2.53 µM) | relative viability (VE-821 + Linsitinib; first compound 8 µM) | relative viability (VE-821 + Bortezomib; first compound 0.08 µM) | relative viability (VE-821 + Bortezomib; first compound 0.253 µM) | relative viability (VE-821 + Bortezomib; first compound 0.8 µM) | relative viability (VE-821 + Bortezomib; first compound 2.53 µM) | relative viability (VE-821 + Bortezomib; first compound 8 µM) | relative viability (Ruxolitinib + Pemetrexed; first compound 0.08 µM)
PC-3 [JPC-3] | 1.13 | 1.18 | 1.11 | 0.907 | 0.522 | 0.547 | 0.511 | 0.506 | 0.572 | 0.923 | 0.932 | 1.05 | 1.07 | 1.01 | 0.871 | 0.884 | 0.932 | 0.884 | 0.842 | –
NCI-H2009 | 1.03 | 1.03 | 0.936 | 0.745 | 0.208 | 0.238 | 0.188 | 0.252 | 0.276 | 1.23 | 1.19 | 1.12 | 1.22 | 1.23 | 0.952 | 0.967 | 0.993 | 1.07 | 0.814 | 1.03
NCI-H1993 | 0.525 | 0.618 | 0.633 | 0.621 | 0.699 | 0.682 | 0.636 | 0.568 | 0.565 | 0.729 | 0.668 | 0.764 | 0.697 | 0.595 | 1.25 | 0.869 | 0.967 | 1.16 | 0.812 | 0.662
HCC-15 | 0.227 | 0.212 | 0.194 | 0.203 | 0.718 | 0.715 | 0.794 | 0.838 | 0.738 | 1.01 | 0.816 | 0.954 | 0.961 | 0.889 | 1.22 | 1.02 | 1.02 | 1.13 | 1.1 | 0.223
NCI-H322M | 0.605 | 0.662 | 0.628 | 0.639 | 0.455 | 0.465 | 0.459 | 0.506 | 0.509 | 0.933 | – | 1 | 0.93 | 0.771 | 1.24 | – | 1.33 | 1.25 | 1.08 | 0.641
